Assay results reported in publication PMC5218480 (PLoS ONE, 2017).

Tested on: MV-4-11 cells
Assay: Gene expression microarray analysis (Affymetrix PrimeView) and GSEA
Format: cell-based, human
Parameters: RFU PODN (11730768_x_at) / Fold change /veh PODN (11730768_x_at) / RFU LINC00158 (11744669_a_at) / Fold change /veh LINC00158 (11744669_a_at) / RFU DUSP10 (11751237_a_at) / Fold change /veh DUSP10 (11751237_a_at) / RFU ID3 (11757404_x_at) / Fold change /veh ID3 (11757404_x_at) / RFU PLEKHG5 (11737974_s_at) / Fold change /veh PLEKHG5 (11737974_s_at) / RFU LRRC4B (11730491_at) / Fold change /veh LRRC4B (11730491_at) / RFU GIMAP4 (11747438_a_at) / Fold change /veh GIMAP4 (11747438_a_at) / RFU KRT8 (11758183_x_at) / Fold change /veh KRT8 (11758183_x_at) / RFU CNN1 (11734310_a_at) / Fold change /veh CNN1 (11734310_a_at) / RFU VPS37D (11726825_at) / Fold change /veh VPS37D (11726825_at) / RFU C10orf10 (11716522_x_at) / Fold change /veh C10orf10 (11716522_x_at) / RFU KIR2DL2 /// KIR2DL4 /// KIR2DL5A /// KIR2DL5B /// KIR2DS1 /// KIR2DS2 /// KIR2DS3 /// KIR2DS4 /// KIR3DL3 /// KIR3DL3 /// KIR3DS1 (11738374_at) / Fold change /veh KIR2DL2 /// KIR2DL4 /// KIR2DL5A /// KIR2DL5B /// KIR2DS1 /// KIR2DS2 /// KIR2DS3 /// KIR2DS4 /// KIR3DL3 /// KIR3DL3 /// KIR3DS1 (11738374_at) / RFU C1QL1 (11718748_at) / Fold change /veh C1QL1 (11718748_at) / RFU TMPRSS4 (11747572_a_at) / Fold change /veh TMPRSS4 (11747572_a_at) / RFU HAMP (11756126_x_at) / Fold change /veh HAMP (11756126_x_at) / RFU RNFT2 (11725882_a_at) / Fold change /veh RNFT2 (11725882_a_at) / RFU NR4A2 (11747474_a_at) / Fold change /veh NR4A2 (11747474_a_at) / RFU ABCC12 (11746883_a_at) / Fold change /veh ABCC12 (11746883_a_at) / RFU TMEM136 (11760407_x_at) / Fold change /veh TMEM136 (11760407_x_at) / RFU CLDN22 /// WWC2 (11732394_at) / Fold change /veh CLDN22 /// WWC2 (11732394_at) / RFU HLA-DPB1 (11760878_x_at) / Fold change /veh HLA-DPB1 (11760878_x_at) / RFU SPINT1 (11716480_a_at) / Fold change /veh SPINT1 (11716480_a_at) / RFU GAP43 (11754022_s_at) / Fold change /veh GAP43 (11754022_s_at) / RFU A4GNT (11735810_at) / Fold change /veh A4GNT (11735810_at) / RFU PRB3 (11715151_x_at) / Fold change /veh PRB3 (11715151_x_at) / RFU TUBB4B (11761932_at) / Fold change /veh TUBB4B (11761932_at) / RFU CAPN14 (11732068_a_at) / Fold change /veh CAPN14 (11732068_a_at) / RFU TMCC2 (11721928_a_at) / Fold change /veh TMCC2 (11721928_a_at) / RFU IRGQ (11745062_a_at) / Fold change /veh IRGQ (11745062_a_at) / RFU FAM174B (11720279_a_at) / Fold change /veh FAM174B (11720279_a_at) / RFU TMPRSS4 (11748680_a_at) / Fold change /veh TMPRSS4 (11748680_a_at) / RFU FAM212B (11763350_a_at) / Fold change /veh FAM212B (11763350_a_at) / RFU PLEKHG5 (11743358_a_at) / Fold change /veh PLEKHG5 (11743358_a_at) / RFU ZSCAN30 (11745921_a_at) / Fold change /veh ZSCAN30 (11745921_a_at) / RFU CMKLR1 (11741424_a_at) / Fold change /veh CMKLR1 (11741424_a_at) / RFU LOC101060620 /// MAPK8IP1 (11723275_at) / Fold change /veh LOC101060620 /// MAPK8IP1 (11723275_at) / RFU SPTSSB (11747773_x_at) / Fold change /veh SPTSSB (11747773_x_at) / RFU PRSS12 (11739890_at) / Fold change /veh PRSS12 (11739890_at) / RFU BIN1 (11741810_x_at) / Fold change /veh BIN1 (11741810_x_at) / RFU WNT11 (11732464_a_at) / Fold change /veh WNT11 (11732464_a_at) / RFU C10orf10 (11716521_a_at) / Fold change /veh C10orf10 (11716521_a_at) / RFU C5orf56 (11738089_at) / Fold change /veh C5orf56 (11738089_at) / RFU CYB561 (11721691_x_at) / Fold change /veh CYB561 (11721691_x_at) / RFU ANKRD19P (11752326_a_at) / Fold change /veh ANKRD19P (11752326_a_at) / RFU OR2T12 /// OR2T33 /// OR2T8 (11738714_s_at) / Fold change /veh OR2T12 /// OR2T33 /// OR2T8 (11738714_s_at) / RFU VCAN (11748164_a_at) / Fold change /veh VCAN (11748164_a_at) / RFU JSRP1 (11732532_at) / Fold change /veh JSRP1 (11732532_at) / RFU KRTAP10-11 (11738290_x_at) / Fold change /veh KRTAP10-11 (11738290_x_at) / RFU MYO3A (11730013_a_at) / Fold change /veh MYO3A (11730013_a_at) / RFU EBF3 (11725865_a_at) / Fold change /veh EBF3 (11725865_a_at) / RFU CAMK2N1 (11719241_x_at) / Fold change /veh CAMK2N1 (11719241_x_at) / RFU C5orf56 (11738088_a_at) / Fold change /veh C5orf56 (11738088_a_at) / RFU OLFML3 (11715873_a_at) / Fold change /veh OLFML3 (11715873_a_at) / RFU LOC100653217 /// NTM (11731650_a_at) / Fold change /veh LOC100653217 /// NTM (11731650_a_at) / RFU MAPK11 (11762145_a_at) / Fold change /veh MAPK11 (11762145_a_at) / RFU FIZ1 (11724087_x_at) / Fold change /veh FIZ1 (11724087_x_at) / RFU OASL (11726364_x_at) / Fold change /veh OASL (11726364_x_at) / RFU SOX15 (11748057_x_at) / Fold change /veh SOX15 (11748057_x_at) / RFU CD79A (11719716_a_at) / Fold change /veh CD79A (11719716_a_at) / RFU HIST1H1D (11736915_at) / Fold change /veh HIST1H1D (11736915_at) / RFU CASKIN2 (11723855_a_at) / Fold change /veh CASKIN2 (11723855_a_at) / RFU LOC730098 (11760151_x_at) / Fold change /veh LOC730098 (11760151_x_at) / RFU OR4N2 (11742367_at) / Fold change /veh OR4N2 (11742367_at) / RFU PRRT2 (11749266_a_at) / Fold change /veh PRRT2 (11749266_a_at) / RFU SNX32 (11753110_a_at) / Fold change /veh SNX32 (11753110_a_at) / RFU CDHR5 (11726645_a_at) / Fold change /veh CDHR5 (11726645_a_at) / RFU RCAN1 (11760418_a_at) / Fold change /veh RCAN1 (11760418_a_at) / RFU FAM167A (11723789_a_at) / Fold change /veh FAM167A (11723789_a_at) / RFU FAM26E (11764081_at) / Fold change /veh FAM26E (11764081_at) / RFU ISYNA1 (11749810_s_at) / Fold change /veh ISYNA1 (11749810_s_at) / RFU ACY1 (11761880_at) / Fold change /veh ACY1 (11761880_at) / RFU 11764098_at / Fold change /veh 11764098_at / RFU SAMD14 (11745864_x_at) / Fold change /veh SAMD14 (11745864_x_at) / RFU NPB (11741838_a_at) / Fold change /veh NPB (11741838_a_at) / RFU TMPRSS6 (11731388_a_at) / Fold change /veh TMPRSS6 (11731388_a_at) / RFU KRTAP10-2 (11738614_at) / Fold change /veh KRTAP10-2 (11738614_at) / RFU ARHGAP8 /// PRR5-ARHGAP8 (11727945_x_at) / Fold change /veh ARHGAP8 /// PRR5-ARHGAP8 (11727945_x_at) / RFU KRTAP5-7 /// NADSYN1 (11734609_at) / Fold change /veh KRTAP5-7 /// NADSYN1 (11734609_at) / RFU RASL12 (11751679_a_at) / Fold change /veh RASL12 (11751679_a_at) / RFU CDKN2B (11736163_a_at) / Fold change /veh CDKN2B (11736163_a_at) / RFU PRF1 (11729649_at) / Fold change /veh PRF1 (11729649_at) / RFU, ZNF638 /// ZNF638-IT1 / Fold change vs veh, ZNF638 /// ZNF638-IT1 / RFU, PANK3 / Fold change vs veh, PANK3 / RFU, SH3YL1 / Fold change vs veh, SH3YL1 / RFU, ZEB2 / Fold change vs veh, ZEB2 / RFU, NRIP1 / Fold change vs veh, NRIP1 / RFU, PTTG1IP / Fold change vs veh, PTTG1IP / RFU, CAPN2 / Fold change vs veh, CAPN2 / RFU, MED14 / Fold change vs veh, MED14 / RFU, SNORA58 / Fold change vs veh, SNORA58 / RFU, C1orf63 / Fold change vs veh, C1orf63 / RFU, LRRFIP1 / Fold change vs veh, LRRFIP1 / RFU, NDUFAF7 / Fold change vs veh, NDUFAF7 / RFU, SLC12A2 / Fold change vs veh, SLC12A2 / RFU, IBTK / Fold change vs veh, IBTK / RFU, ESF1 / Fold change vs veh, ESF1 / Fold change vs veh, TMEM50B / RFU, TAOK1 / Fold change vs veh, TAOK1 / RFU, ACBD3 / Fold change vs veh, ACBD3 / RFU, TMA16 / Fold change vs veh, TMA16 / RFU, RWDD3 / Fold change vs veh, RWDD3 / RFU, BCAT1 / Fold change vs veh, BCAT1 / RFU, EDEM3 / Fold change vs veh, EDEM3 / RFU, TMEM33 / Fold change vs veh, TMEM33 / RFU, WDR75 / Fold change vs veh, WDR75 / RFU, AHCTF1 / Fold change vs veh, AHCTF1 / RFU, TFRC / Fold change vs veh, TFRC / RFU, ZDHHC17 / Fold change vs veh, ZDHHC17 / RFU, NOM1 / Fold change vs veh, NOM1 / RFU, ARL8B / Fold change vs veh, ARL8B / RFU, ZBTB11 / Fold change vs veh, ZBTB11 / RFU, TAMM41 / Fold change vs veh, TAMM41 / RFU, KIAA1704 /// LOC100996395 / Fold change vs veh, KIAA1704 /// LOC100996395 / RFU, ING1 / Fold change vs veh, ING1 / RFU, TRMT61B / Fold change vs veh, TRMT61B / RFU, FUBP3 / Fold change vs veh, FUBP3 / RFU, TP53 / Fold change vs veh, TP53 / RFU, TNKS2 / Fold change vs veh, TNKS2 / RFU, ZFP14 / Fold change vs veh, ZFP14 / RFU, ACTR2 / Fold change vs veh, ACTR2 / RFU, PPP3R1 / Fold change vs veh, PPP3R1 / RFU, PIK3R1 / Fold change vs veh, PIK3R1 / RFU, HNRNPA1 / Fold change vs veh, HNRNPA1 / RFU, RNF170 / Fold change vs veh, RNF170 / RFU, ZNF28 / Fold change vs veh, ZNF28 / RFU, RNGTT / Fold change vs veh, RNGTT / RFU, OGT / Fold change vs veh, OGT / RFU, BRD1 / Fold change vs veh, BRD1 / RFU, MARS / Fold change vs veh, MARS / RFU, ZNF655 / Fold change vs veh, ZNF655 / RFU, FAHD1 / Fold change vs veh, FAHD1 / RFU, BDP1 / Fold change vs veh, BDP1 / RFU, LRRCC1 / Fold change vs veh, LRRCC1 / RFU, ARID1A / Fold change vs veh, ARID1A / RFU, ZNF146 / Fold change vs veh, ZNF146 / RFU, ZNF330 / Fold change vs veh, ZNF330 / RFU, GPN3 / Fold change vs veh, GPN3 / RFU, C9orf123 / Fold change vs veh, C9orf123 / RFU, N4BP2L2 / Fold change vs veh, N4BP2L2 / RFU, ARFIP1 / Fold change vs veh, ARFIP1 / RFU, FAM179B / Fold change vs veh, FAM179B / RFU, BCL10 / Fold change vs veh, BCL10 / RFU, UHRF1BP1L / Fold change vs veh, UHRF1BP1L / RFU, BET1 / Fold change vs veh, BET1 / RFU, CNOT2 / Fold change vs veh, CNOT2 / RFU, ZNF268 / Fold change vs veh, ZNF268 / Fold change vs veh, ZNF507 / RFU, DGCR2 / Fold change vs veh, DGCR2 / RFU, WDSUB1 / Fold change vs veh, WDSUB1 / Fold change vs veh, HSP90B1 /// MIR3652 / RFU, ADSS / Fold change vs veh, ADSS / RFU, GK / Fold change vs veh, GK / RFU, ZNF148 / Fold change vs veh, ZNF148 / RFU, TAF9 / Fold change vs veh, TAF9 / RFU, SLC1A5 / Fold change vs veh, SLC1A5 / RFU, SLMO2 / Fold change vs veh, SLMO2 / RFU, ABCC4 / Fold change vs veh, ABCC4 / RFU, LOC101060439 /// RAP1B / Fold change vs veh, LOC101060439 /// RAP1B / RFU, RFX7 / Fold change vs veh, RFX7 / RFU, GTPBP10 / Fold change vs veh, GTPBP10 / RFU, CNEP1R1 / Fold change vs veh, CNEP1R1 / RFU, BIVM-ERCC5 /// ERCC5 / Fold change vs veh, BIVM-ERCC5 /// ERCC5 / RFU, ILF3 / Fold change vs veh, ILF3 / RFU 11762660_at / Fold change /veh 11762660_at / RFU VCAN (11757783_s_at) / Fold change /veh VCAN (11757783_s_at) / RFU DDX43 (11728927_at) / Fold change /veh DDX43 (11728927_at) / RFU KRT8 (11758188_x_at) / Fold change /veh KRT8 (11758188_x_at) / RFU NKD1 (11759106_at) / Fold change /veh NKD1 (11759106_at) / RFU SRD5A1 (11742802_a_at) / Fold change /veh SRD5A1 (11742802_a_at) / RFU TPSAB1 /// TPSB2 (11721975_s_at) / Fold change /veh TPSAB1 /// TPSB2 (11721975_s_at) / RFU GSTM3 (11746129_a_at) / Fold change /veh GSTM3 (11746129_a_at) / RFU IL23R (11737362_x_at) / Fold change /veh IL23R (11737362_x_at) / RFU TMEM51 (11727254_a_at) / Fold change /veh TMEM51 (11727254_a_at) / RFU PIWIL2 (11732686_x_at) / Fold change /veh PIWIL2 (11732686_x_at) / RFU ORM1 (11744905_x_at) / Fold change /veh ORM1 (11744905_x_at) / RFU CCDC152 (11743942_at) / Fold change /veh CCDC152 (11743942_at) / RFU ECM1 (11717891_a_at) / Fold change /veh ECM1 (11717891_a_at) / RFU IL23R (11748794_a_at) / Fold change /veh IL23R (11748794_a_at) / RFU TNFAIP8L3 (11732012_x_at) / Fold change /veh TNFAIP8L3 (11732012_x_at) / RFU MBOAT4 (11741988_at) / Fold change /veh MBOAT4 (11741988_at) / RFU 11764193_at / Fold change /veh 11764193_at / RFU TMEM53 (11763286_at) / Fold change /veh TMEM53 (11763286_at) / RFU MAGEB2 (11727129_at) / Fold change /veh MAGEB2 (11727129_at) / RFU TMEM200A (11744735_a_at) / Fold change /veh TMEM200A (11744735_a_at) / RFU CCDC152 (11751479_a_at) / Fold change /veh CCDC152 (11751479_a_at) / RFU FAM211A (11726209_a_at) / Fold change /veh FAM211A (11726209_a_at) / RFU RGS16 (11746705_a_at) / Fold change /veh RGS16 (11746705_a_at) / RFU VCAN (11755009_s_at) / Fold change /veh VCAN (11755009_s_at) / RFU RHOB (11743442_s_at) / Fold change /veh RHOB (11743442_s_at) / RFU RGS16 (11720943_a_at) / Fold change /veh RGS16 (11720943_a_at) / RFU RGS16 (11720944_at) / Fold change /veh RGS16 (11720944_at) / RFU, VPS4B / Fold change vs veh, VPS4B / RFU, CREB1 / Fold change vs veh, CREB1 / RFU, DNAJC13 / Fold change vs veh, DNAJC13 / RFU, GNAQ / Fold change vs veh, GNAQ / RFU, CDK5R1 / Fold change vs veh, CDK5R1 / RFU, ZRANB3 / Fold change vs veh, ZRANB3 / RFU, CUL4A / Fold change vs veh, CUL4A / RFU, CCNY / Fold change vs veh, CCNY / RFU, UFL1 / Fold change vs veh, UFL1 / RFU, COG3 / Fold change vs veh, COG3 / RFU, DIAPH2 / Fold change vs veh, DIAPH2 / RFU, SKA2 / Fold change vs veh, SKA2 / RFU, AFF3 / Fold change vs veh, AFF3 / RFU, LMF1 / Fold change vs veh, LMF1 / RFU, IPO11 / Fold change vs veh, IPO11 / RFU, DFFB / Fold change vs veh, DFFB / RFU, FOXP1 / Fold change vs veh, FOXP1 / RFU, CARD8 / Fold change vs veh, CARD8 / RFU, STRN3 / Fold change vs veh, STRN3 / RFU, ADK / Fold change vs veh, ADK / RFU, RASSF2 / Fold change vs veh, RASSF2 / RFU, WIPF1 / Fold change vs veh, WIPF1 / RFU, LARP1B / Fold change vs veh, LARP1B / RFU, RASA1 / Fold change vs veh, RASA1 / RFU, RB1 / Fold change vs veh, RB1 / RFU, PPFIA1 / Fold change vs veh, PPFIA1 / RFU, MAT2A / Fold change vs veh, MAT2A / RFU, CCT5 / Fold change vs veh, CCT5 / RFU, WDR92 / Fold change vs veh, WDR92 / RFU, CUX1 / Fold change vs veh, CUX1 / RFU, TTC7A / Fold change vs veh, TTC7A / RFU, TMEM135 / Fold change vs veh, TMEM135 / RFU, DEPTOR / Fold change vs veh, DEPTOR / RFU, CPM / Fold change vs veh, CPM / RFU, DNAJB6 / Fold change vs veh, DNAJB6 / RFU, CACNA2D3 / Fold change vs veh, CACNA2D3 / RFU, DTX4 / Fold change vs veh, DTX4 / RFU, TFCP2 / Fold change vs veh, TFCP2 / RFU, GMCL1 /// GMCL1P1 / Fold change vs veh, GMCL1 /// GMCL1P1 / RFU, AEBP2 / Fold change vs veh, AEBP2 / RFU, SNHG1 /// SNORD22 /// SNORD25 /// SNORD26 /// SNORD27 /// SNORD28 /// SNORD29 /// SNORD31 / Fold change vs veh, SNHG1 /// SNORD22 /// SNORD25 /// SNORD26 /// SNORD27 /// SNORD28 /// SNORD29 /// SNORD31 / Fold change (Aza/veh), C12orf56 (ProbeSet 11735607_a_at) / Fold change (ACY-1035/veh), C12orf56 (ProbeSet 11735607_a_at) / Fold change (Aza/veh), FGFR1OP (ProbeSet 11751329_s_at) / Fold change (ACY-1035/veh), FGFR1OP (ProbeSet 11751329_s_at) / Fold change (Aza/veh), VPS36 (ProbeSet 11739960_a_at) / Fold change (ACY-1035/veh), VPS36 (ProbeSet 11739960_a_at) / RFU SYPL1 (11715823_x_at) / Fold change /veh SYPL1 (11715823_x_at) / RFU IGFBP7 (11715501_s_at) / Fold change /veh IGFBP7 (11715501_s_at) / RFU REEP3 (11722064_at) / Fold change /veh REEP3 (11722064_at) / RFU IGLL1 (11728026_x_at) / Fold change /veh IGLL1 (11728026_x_at): dose or concentration left out as unconfirmed
Details: MV-4-11 cells, 48 hours

## Nc1ccc(-c2cccs2)cc1NC(=O)c1ccc2c(c1)cc(C1CC1)n2CCN1CCOCC1 [ACY-1035]
  RFU HAMP (11756126_x_at): 352.00 RFU
